In the assay the target is T1, Androgen Receptor (AR) protein (Homo sapiens, UniProt P10275, T878A).
T1 construct: endogenous in cells; host or cells: LNCaP
The assay is described as follows: Androgen Receptor (AR) protein degradation assay in LNCaP cells, western blotting. The class given is cell-based. The following applies: 20 h; for inhibition at 0.01 µM: 0.01 μM compound; for inhibition at 0.1 µM: 0.1 μM compound; for inhibition at 1 µM: 1 μM compound. As to the method: Experimental Example 1: Androgen Receptor (AR) Protein Degradation Assay
After treating LNCaP cells with the synthesized Example compound, the amount of AR protein present in the cells was measured. The amount of AR protein was measured using western blotting detection method. The protocol of the experiment using LNCaP cells was as follows:
[Culture] LNCaP cells were resuspended in RPMI1640 MEDIUM (Hyclone, SH30027.01), 10% FBS (Hyclone, SV30207.02), and 1% Penicillin-streptomycin (Welgene, LS 202-02) media to be 3×10^5/mL. Then, 1 mL each was seeded in a 12-well plate. After that, they were cultured for 3 days.
[Compound treatment] 10 μl of 0.1, 1, 10, and 100 μM compound, which is the final compound treatment concentration and a 100× stock of 0.001, 0.01, 0.1, and 1 μM, was added in 1 ml media of each well, and 20 hours later, the cells were harvested.
[Cell Lysis] Cell pellets were suspended using 1% SDS lysis buffer (50 mM Tris, 1 mM EDTA, 1% SDS, pH 8.0, 0.5 mM PMSF, 1× Protease/Phosphatase inhibitor Cocktail (Cell Signaling Technology, 5872s)), and sonication (70% AMP, 5 cycles (30 sec ON/59 sec OFF)) was performed. Cell lysate was obtained after centrifugation at 4° C., 15000 g, for 20 minutes.
[Protein quantification] A BCA protein assay (SMART™ BCA Protein Assay Kit, iNtRON Biotechnology, 21071) was performed using a 96-well microplate. After adding 5 μl cell lysate and 5 μl 1% SDS lysis buffer to each well of the 96-well plate, 200 μl of BCA reagent (Reagent A:Reagent B=50:1) was additionally added. After incubation at 37° C. for 30 minutes, it was cooled at room temperature for 10 minutes. Then, absorbance was measured at a wavelength of 562 nm. The unknown protein concentration was measured using a BSA standard curve (0, 0.125, 0.25, 0.5, 1, 2 mg/ml). Western blotting samples were prepared by mixing cell lysate, 1% SDS lysis buffer, 4× Bolt™ LDS Sample buffer (Invitrogen, B0008), and 10× Bolt™ Sample Reducing Agent (Invitrogen, B0009) and boiling the mixture at 70° C. for 10 minutes.
[Electrophoresis] After loading 8 μg of protein sample into each well of Bolt™ 4 to 12%, Bis-Tris, 1.0 mm Mini Protein Gel, 17-well (Invitrogen, NW04127BOX), Bolt™ MES SDS Running Buffer (Invitrogen, B0002) was used for electrophoresis at 200V (constant V) for 50 minutes.
[Transfer] Using electrophoresis gel and Trans-Blot® Turbo™ Transfer Starter System (Bio-RAD, #17001918, Mini Nitrocellulose), transfer proceeded for 15 minutes under the condition of 1.3A (Constant A) and 25V (Limit V). To confirm protein transfer, 15 ml of Ponceau S solution (Sigma, P7170-1L) was used for staining for 1 minute, followed by washing to confirm the degree of transfer.
[Blocking] Membranes for AR detection were blocked for 45 minutes with 5% skim milk/0.2% TBST (Skim milk: BD, 232100/20× TBS: Biosesang, TR2008-100-00/10% Tween 20 Solution: Bio-RAD, #161-0781). Membranes for GAPDH and β-actin detection were blocked for 45 minutes with Odyssey blocking buffer: 0.1% TBST=1:1 (Odyssey blocking buffer: Li-COR Biosciences, 927-50000).
[Antibody and detection] The primary AR antibody (Androgen Receptor: CST, 5153s) was mixed with 5% skim milk/0.2% TBST at a ratio of 1:1000 and attached for 3 hours at room temperature. Primary β-actin antibody (GeneTex, 629630) was mixed with 5% BSA/0.2% TBST at a ratio of 1:2000 and attached for 3 hours at room temperature. Primary GAPDH antibody (GeneTex, 100118) was mixed with 5% BSA/0.2% TBST at a ratio of 1:2000 and attached for 3 hours at room temperature. After 3 hours, it was washed 3 times every 5 minutes using TBST (0.2% Tween 20). Anti-rabbit IgG, HRP-linked Antibody (CST, 7074s), secondary antibody for the AR antibody was mixed with 5% skim milk/0.2% TBST at a ratio of 1:5000 and attached for 45 minutes at room temperature. […]

In patent US12122763B2, “Substituted piperidines for androgen receptor degradation” (UBIX THERAPEUTICS, INC., priority 2020, dated 2024) one finds inhibition data, which are given here for eleven compounds.

In general, inhibition refers to the share of the control response that was lost under treatment. Read a high inhibition as a response far below the control.

T1 sequence (P10275 whole entry T878A): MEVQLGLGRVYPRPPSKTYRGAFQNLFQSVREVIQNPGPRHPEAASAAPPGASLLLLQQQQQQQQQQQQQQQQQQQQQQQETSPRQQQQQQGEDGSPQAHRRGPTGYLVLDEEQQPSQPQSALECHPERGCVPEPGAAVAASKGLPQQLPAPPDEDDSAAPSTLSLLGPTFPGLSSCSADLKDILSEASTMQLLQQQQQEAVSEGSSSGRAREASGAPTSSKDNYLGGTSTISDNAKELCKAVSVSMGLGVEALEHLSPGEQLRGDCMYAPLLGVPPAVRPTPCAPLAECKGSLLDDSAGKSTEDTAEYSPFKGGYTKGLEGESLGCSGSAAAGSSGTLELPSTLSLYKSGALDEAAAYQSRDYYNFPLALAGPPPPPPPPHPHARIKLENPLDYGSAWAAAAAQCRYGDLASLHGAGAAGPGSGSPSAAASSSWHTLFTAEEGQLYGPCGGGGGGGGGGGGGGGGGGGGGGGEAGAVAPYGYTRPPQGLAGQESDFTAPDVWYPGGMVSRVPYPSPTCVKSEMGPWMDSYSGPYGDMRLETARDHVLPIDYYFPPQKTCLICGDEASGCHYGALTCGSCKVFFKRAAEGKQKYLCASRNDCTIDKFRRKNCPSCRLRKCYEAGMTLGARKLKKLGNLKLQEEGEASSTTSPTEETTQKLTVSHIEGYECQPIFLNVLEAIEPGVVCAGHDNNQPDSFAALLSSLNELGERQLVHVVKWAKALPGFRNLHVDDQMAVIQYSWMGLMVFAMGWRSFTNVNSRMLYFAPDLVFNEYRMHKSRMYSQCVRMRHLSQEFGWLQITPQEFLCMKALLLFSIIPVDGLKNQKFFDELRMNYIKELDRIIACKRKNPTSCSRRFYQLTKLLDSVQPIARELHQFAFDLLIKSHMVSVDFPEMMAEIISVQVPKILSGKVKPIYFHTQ
T1 sequence (Q96SW2 whole entry partner): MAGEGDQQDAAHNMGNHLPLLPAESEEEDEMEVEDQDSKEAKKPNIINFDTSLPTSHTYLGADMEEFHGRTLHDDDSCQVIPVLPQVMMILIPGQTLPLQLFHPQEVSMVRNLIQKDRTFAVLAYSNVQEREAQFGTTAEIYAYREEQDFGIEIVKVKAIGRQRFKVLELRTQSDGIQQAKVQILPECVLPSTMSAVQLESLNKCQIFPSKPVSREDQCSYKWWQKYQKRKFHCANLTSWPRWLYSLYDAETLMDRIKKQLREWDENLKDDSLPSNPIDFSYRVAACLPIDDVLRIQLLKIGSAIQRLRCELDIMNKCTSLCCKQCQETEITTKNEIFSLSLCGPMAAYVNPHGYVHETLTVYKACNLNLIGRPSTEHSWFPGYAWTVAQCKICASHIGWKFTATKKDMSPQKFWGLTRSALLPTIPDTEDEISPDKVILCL

Take `N#Cc1ccc(N2CCC(C(=O)Nc3ccc(N4CCC(CCN5CC6CN(c7ccc8c(c7)C(=O)N(C7CCC(=O)NC7=O)C8=O)CC6C5)CC4)cn3)CC2)cc1C(F)(F)F` (stereo not shown) [Example 101, 1-(4-cyano-3-(trifluoromethyl)phenyl)-N-(5-(4-(2-(5-(2-(2,6-dioxopiperidin-3-yl)-1,3-dioxoisoindolin-5-yl)hexahydropyrrolo[3,4-c]pyrrol-2(1H)-yl)ethyl)piperidin-1-yl)pyridin-2-yl)piperidine-4-carboxamide]: 0.01 µM produced 63% inhibition, the inhibition at 0.1 µM is 95% and testing at 1 µM gave an inhibition of 95%.

`N#Cc1ccc(N2CCC(C(=O)Nc3ccc(CC4CCN(CC5CCN(c6ccc7c(c6)C(=O)N(C6CCC(=O)NC6=O)C7=O)CC5)CC4)cn3)CC2)cc1C(F)(F)F` (stereo not shown) [Example 164, 1-(4-cyano-3-(trifluoromethyl)phenyl)-N-(5-((1-((1-(2-(2,6-dioxopiperidin-3-yl)-1,3-dioxoisoindolin-5-yl)piperidin-4-yl)methyl)piperidin-4-yl)methyl)pyridin-2-yl)piperidine-4-carboxamide] gave an inhibition at 0.01 µM of 79%, an inhibition at 0.1 µM of 96% and an inhibition at 1 µM of 97%.

For `N#Cc1ccc(N2CCC(C(=O)Nc3ccc(N4CCC(C(=O)N5CC6(CCN(c7ccc8c(c7)C(=O)N(C7CCC(=O)NC7=O)C8=O)CC6)C5)CC4)cn3)CC2)cc1C(F)(F)F` (stereo not shown) [Example 154, 1-(4-cyano-3-(trifluoromethyl)phenyl)-N-(5-(4-(7-(2-(2,6-dioxopiperidin-3-yl)-1,3-dioxoisoindolin-5-yl)-2,7-diazaspiro[3.5]nonane-2-carbonyl)piperidin-1-yl)pyridin-2-yl)piperidine-4-carboxamide], testing at 0.01 µM gave an inhibition of 26%, the inhibition at 0.1 µM was determined as 86% and the inhibition at 1 µM turned out to be 91%.

`N#Cc1ccc(N2CCC(C(=O)Nc3ccc(N4CCC(O)(CCN5CCN(c6ccc7c(c6)C(=O)N(C6CCC(=O)NC6=O)C7=O)CC5)CC4)cn3)CC2)cc1C(F)(F)F` (stereo not shown) [Example 153, 1-(4-cyano-3-(trifluoromethyl)phenyl)-N-(5-(4-(2-(4-(2-(2,6-dioxopiperidin-3-yl)-1,3-dioxoisoindolin-5-yl)piperazin-1-yl)ethyl)-4-hydroxypiperidin-1-yl)pyridin-2-yl)piperidine-4-carboxamide] registered an inhibition at 0.01 µM of 56%, an inhibition at 0.1 µM of 95% and an inhibition at 1 µM of 97%.

As for `N#Cc1ccc(N2CCC(C(=O)Nc3ccc(N4CCC(CN5CC(CN6CCN(c7ccc8c(n7)CN(C7CCC(=O)NC7=O)C8=O)CC6)C5)CC4)cn3)CC2)cc1C(F)(F)F` (stereo not shown) [Example 80, 1-(4-cyano-3-(trifluoromethyl)phenyl)-N-(5-(4-((3-((4-(6-(2,6-dioxopiperidin-3-yl)-5-oxo-6,7-dihydro-5H-pyrrolo[3,4-b]pyridin-2-yl)piperazin-1-yl)methyl)azetidin-1-yl)methyl)piperidin-1-yl)pyridin-2-yl)piperidine-4-carboxamide], 0.01 µM produced 34% inhibition, 0.1 µM produced 90% inhibition and testing at 1 µM gave an inhibition of 57%.

Turning to `N#Cc1ccc(N2CCC(C(=O)Nc3ccc(N4CCC(CN5CCC6(CC5)CN(c5ccc7c(c5)C(=O)N(C5CCC(=O)NC5=O)C7=O)C6)CC4)cn3)CC2)cc1Cl` (stereo not shown) [Example 64, 1-(3-chloro-4-cyanophenyl)-N-(5-(4-((2-(2-(2,6-dioxopiperidin-3-yl)-1,3-dioxoisoindolin-5-yl)-2,7-diazaspiro[3.5]nonan-7-yl)methyl)piperidin-1-yl)pyridin-2-yl)piperidine-4-carboxamide], the inhibition at 0.01 µM was 71.5%, the inhibition at 0.1 µM stood at 97% and the inhibition at 1 µM is 98.5%. The compound further came in with an inhibition at 10 µM (10 μM compound) of 98.5%.

Consider `N#Cc1ccc(N2CCC(C(=O)Nc3ccc(N4CCC5(CC4)CN(CC4CN(c6ccc7c(c6)C(=O)N(C6CCC(=O)NC6=O)C7=O)C4)C5)cn3)CC2)cc1C(F)(F)F` (stereo not shown) [Example 128, 1-(4-cyano-3-(trifluoromethyl)phenyl)-N-(5-(2-((1-(2-(2,6-dioxopiperidin-3-yl)-1,3-dioxoisoindolin-5-yl)azetidin-3-yl)methyl)-2,7-diazaspiro[3.5]nonan-7-yl)pyridin-2-yl)piperidine-4-carboxamide], for which 0.01 µM produced 28% inhibition, the inhibition at 0.1 µM is 43% and at 1 µM the inhibition was 61%.

`N#Cc1ccc(N2CCC(C(=O)Nc3ccc(N4CCC(CN5CCN(CC6CCN(c7cccc8c7C(=O)N(C7CCC(=O)NC7=O)C8=O)CC6)CC5)CC4)cn3)CC2)cc1C(F)(F)F` (stereo not shown) [Example 13, 1-(4-cyano-3-(trifluoromethyl)phenyl)-N-(5-(4-((4-((1-(2-(2,6-dioxopiperidin-3-yl)-1,3-dioxoisoindolin-4-yl)piperidin-4-yl)methyl)piperazin-1-yl)methyl)piperidin-1-yl)pyridin-2-yl)piperidine-4-carboxamide] registered an inhibition at 0.01 µM of 59%, an inhibition at 0.1 µM of 91% and an inhibition at 1 µM of 94%.

`N#Cc1ccc(N2CCC(C(=O)Nc3ccc(N4CCC(CCN5CCN(C6CCN(c7ccc8c(c7)C(=O)N(C7CCC(=O)NC7=O)C8=O)CC6)CC5)CC4)cn3)CC2)cc1C(F)(F)F` (stereo not shown) [Example 91, 1-(4-cyano-3-(trifluoromethyl)phenyl)-N-(5-(4-(2-(4-(1-(2-(2,6-dioxopiperidin-3-yl)-1,3-dioxoisoindolin-5-yl)piperidin-4-yl)piperazin-1-yl)ethyl)piperidin-1-yl)pyridin-2-yl)piperidine-4-carboxamide] returned an inhibition at 0.01 µM of 48%, an inhibition at 0.1 µM of 96% and an inhibition at 1 µM of 98%.

With `N#Cc1ccc(N2CCC(C(=O)Nc3ccc(N4CCC(CN5CCN(C[C@@H]6CCN(c7cc8c(cc7F)C(=O)N(C7CCC(=O)NC7=O)C8=O)C6)CC5)CC4)cn3)CC2)cc1C(F)(F)F` (stereo partly drawn) [Example 38, 1-(4-cyano-3-(trifluoromethyl)phenyl)-N-(5-(4-((4-(((3S)-1-(2-(2,6-dioxopiperidin-3-yl)-6-fluoro-1,3-dioxoisoindolin-5-yl)pyrrolidin-3-yl)methyl)piperazin-1-yl)methyl)piperidin-1-yl)pyridin-2-yl)piperidine-4-carboxamide], the inhibition at 0.01 µM was 44%, testing at 0.1 µM gave an inhibition of 93% and testing at 1 µM gave an inhibition of 97%.

Regarding `N#Cc1ccc(N2CCC(C(=O)Nc3ccc(N4CCC(CN5CC(N6CCN(c7ccc8c(n7)CN(C7CCC(=O)NC7=O)C8=O)CC6)C5)CC4)cn3)CC2)cc1C(F)(F)F` (stereo not shown) [Example 78, 1-(4-cyano-3-(trifluoromethyl)phenyl)-N-(5-(4-((3-(4-(6-(2,6-dioxopiperidin-3-yl)-5-oxo-6,7-dihydro-5H-pyrrolo[3,4-b]pyridin-2-yl)piperazin-1-yl)azetidin-1-yl)methyl)piperidin-1-yl)pyridin-2-yl)piperidine-4-carboxamide], the inhibition at 0.01 µM was 49%, the inhibition at 0.1 µM turned out to be 88% and 1 µM produced 71% inhibition.
